According to paper PMC4486055 (Cancer chemotherapy and pharmacology, 2014):
Entries after “also recorded” stand apart in the source; their conditions may differ. Like-named read-outs stand apart in the source and are kept apart here.

How the values were obtained:
[1] = Single-dose pharmacokinetics of AZD7762 in plasma and urine
Japanese patients = settings: in combination with gemcitabine, bradycardia, hypertension, DLT troponin T increase; cited from earlier work
[2] = test system: patients with advanced solid tumors; settings: for Serious AE possibly related to AZD7762: one patient
advanced solid tumors = assay: Tumor assessments according to RECIST version 1.0; type: in vivo, human; settings: of 38 evaluable; AZD7762 plus gemcitabine
pChk1ser345 and pH2AX = type: in vivo, human
[3] = AZD7762 6 mg/gemcitabine 750 mg/m^2, 3x/cycle, n=6
[4] = AZD7762 6 mg/gemcitabine 1,000 mg/m^2, 2x/cycle, n=2
[5] = AZD7762 6 mg/gemcitabine 1,000 mg/m^2, 3x/cycle, n=1
[6] = AZD7762 9 mg/gemcitabine 1,000 mg/m^2, n=3
[7] = AZD7762 14 mg/gemcitabine 1,000 mg/m^2, n=6
[8] = AZD7762 21 mg/gemcitabine 1,000 mg/m^2, n=3
[9] = AZD7762 30 mg/gemcitabine 1,000 mg/m^2, n=7
[10] = AZD7762 32 mg/gemcitabine 1,000 mg/m^2, n=6
[11] = AZD7762 40 mg/gemcitabine 1,000 mg/m^2, n=8
[12] = all doses, overall, 11/42 patients
[13] = cycle 0 (AZD7762 alone), 6/42 patients
[14] = cycle 1 onwards, AZD7762 6 mg plus gemcitabine 1,000 mg/m^2, 3x/cycle, n=1

## NC(=O)Nc1cc(-c2cccc(F)c2)sc1C(=O)N[C@H]1CCCNC1 [AZD7762]
[1]; 30 mg dose
  Peak plasma concentration: 291 ng/mL
[1]; first 48 h post-dosing, across all dose levels
  Unchanged drug excreted in the urine: 11–20%
[1]; over the dose range studied
  AZD7762 exposure (Cmax, C24 h, and AUC) versus dose: increased linearly; also recorded: increased in a dose-proportional manner
Japanese patients
  Dose escalation limit due to cardiac AEs: did not support dose escalation beyond 21 mg
[2]; [3]
  Blood ALP increased, number of patients (%): 0 patients (%)
  Constipation, number of patients (%): 2 (33) patients (%)
  Decreased appetite, number of patients (%): 2 (33) patients (%)
  Dehydration, number of patients (%): 2 (33) patients (%)
  Diarrhea, number of patients (%): 0 patients (%)
  Neutropenia/leukopenia, number of patients (%): 0 patients (%)
  Thrombocytopenia, number of patients (%): 2 (33) patients (%)
  Vomiting, number of patients (%): 2 (33) patients (%)
[2]; [4]
  Decreased appetite, number of patients (%): 0 patients (%)
  Diarrhea, number of patients (%): 0 patients (%)
  Headache, number of patients (%): 0 patients (%)
  Nausea, number of patients (%): 0 patients (%)
  Neutropenia/leukopenia, number of patients (%): 0 patients (%)
  Thrombocytopenia, number of patients (%): 0 patients (%)
[2]; [5]
  ALT/AST increased, number of patients (%): 0 patients (%)
  Blood ALP increased, number of patients (%): 0 patients (%)
  Constipation, number of patients (%): 0 patients (%)
  Decreased appetite, number of patients (%): 0 patients (%)
  Dehydration, number of patients (%): 0 patients (%)
  Headache, number of patients (%): 0 patients (%)
  Thrombocytopenia, number of patients (%): 0 patients (%)
[2]; [6]
  ALT/AST increased, number of patients (%): 0 patients (%)
  Anemia/Hb decreased, number of patients (%): 1 (33) patients (%)
  Blood ALP increased, number of patients (%): 0 patients (%)
  Constipation, number of patients (%): 1 (33) patients (%)
  Decreased appetite, number of patients (%): 0 patients (%)
  Dehydration, number of patients (%): 1 (33) patients (%)
  Diarrhea, number of patients (%): 1 (33) patients (%)
  Fatigue, number of patients (%): 1 (33) patients (%)
  Nausea, number of patients (%): 1 (33) patients (%)
  Neutropenia/leukopenia, number of patients (%): 0 patients (%)
  Thrombocytopenia, number of patients (%): 1 (33) patients (%)
  Vomiting, number of patients (%): 0 patients (%)
[2]; [7]
  ALT/AST increased, number of patients (%): 0 patients (%)
  Anemia/Hb decreased, number of patients (%): 0 patients (%)
  Blood ALP increased, number of patients (%): 0 patients (%)
  Constipation, number of patients (%): 2 (33) patients (%)
  Dehydration, number of patients (%): 0 patients (%)
  Headache, number of patients (%): 0 patients (%)
  Neutropenia/leukopenia, number of patients (%): 2 (33) patients (%)
[2]; [8]
  ALT/AST increased, number of patients (%): 0 patients (%)
  Anemia/Hb decreased, number of patients (%): 0 patients (%)
  Blood ALP increased, number of patients (%): 0 patients (%)
  Constipation, number of patients (%): 0 patients (%)
  Dehydration, number of patients (%): 1 (33) patients (%)
  Diarrhea, number of patients (%): 0 patients (%)
  Headache, number of patients (%): 0 patients (%)
  Nausea, number of patients (%): 1 (33) patients (%)
  Neutropenia/leukopenia, number of patients (%): 0 patients (%)
  Pyrexia, number of patients (%): 0 patients (%)
  Thrombocytopenia, number of patients (%): 0 patients (%)
  Vomiting, number of patients (%): 1 (33) patients (%)
[2]; [9]
  Constipation, number of patients (%): 1 (14) patients (%)
  Decreased appetite, number of patients (%): 0 patients (%)
  Dehydration, number of patients (%): 0 patients (%)
  Fatigue, number of patients (%): 0 patients (%)
  Headache, number of patients (%): 0 patients (%)
  Nausea, number of patients (%): 1 (14) patients (%)
  Pyrexia, number of patients (%): 0 patients (%)
  Thrombocytopenia, number of patients (%): 0 patients (%)
[2]; [10]
  ALT/AST increased, number of patients (%): 0 patients (%)
  Blood ALP increased, number of patients (%): 0 patients (%)
  Constipation, number of patients (%): 0 patients (%)
  Decreased appetite, number of patients (%): 2 (33) patients (%)
  Diarrhea, number of patients (%): 2 (33) patients (%)
[2]; [11]
  Anemia/Hb decreased, number of patients (%): 2 (25) patients (%)
  Decreased appetite, number of patients (%): 0 patients (%)
  Dehydration, number of patients (%): 0 patients (%)
  Fatigue, number of patients (%): 2 (25) patients (%)
  Headache, number of patients (%): 0 patients (%)
  Nausea, number of patients (%): 2 (25) patients (%)
  Pyrexia, number of patients (%): 2 (25) patients (%)
  Thrombocytopenia, number of patients (%): 2 (25) patients (%)
[2]; [12]
  ALT/AST increase, patients with AE overall: 26%
  Nausea, patients with AE overall: 26%
  Pyrexia, patients with AE overall: 26%
[2]; all doses, overall, 12/42 patients
  Anemia/Hb decrease, patients with AE overall: 29%
[2]; all doses, overall, 15/42 patients
  Neutropenia/leukopenia, patients with AE overall: 36%
[2]; all doses, overall, 17/42 patients
  Fatigue, patients with AE overall: 41%
[2]; all doses, total n=42
  ALT/AST increased, number of patients (%): 11 (26) patients (%)
  Dehydration, number of patients (%): 6 (14) patients (%)
  Nausea, number of patients (%): 11 (26) patients (%)
  Pyrexia, number of patients (%): 11 (26) patients (%)
[2]; cycle 0 (AZD7762 alone), 5/42 patients
  Nausea, patients with AE: 12%
[2]; [13]
  Fatigue, patients with AE: 14%
  Vomiting, patients with AE: 14%
[2]; cycle 0 (AZD7762 alone), 8/42 patients
  AEs of CTCAE grade ≥3, patients: 19%
[2]; cycle 0, AZD7762 monotherapy 6 mg (6/750 cohort, 3x/cycle, n=6)
  Adverse events grade ≥3, patients: 2 (33) n (%)
[2]; cycle 0, AZD7762 monotherapy 6 mg (6/1,000 cohort, 2x/cycle, n=2)
  Adverse events grade ≥3, patients: 0 n (%)
[2]; cycle 0, AZD7762 monotherapy 6 mg (6/1,000 cohort, 3x/cycle, n=1)
  Adverse events grade ≥3, patients: 0 n (%)
[2]; cycle 0, AZD7762 monotherapy 9 mg, n=3
  Adverse events grade ≥3, patients: 0 n (%)
[2]; cycle 0, AZD7762 monotherapy 14 mg, n=6
  Adverse events grade ≥3, patients: 0 n (%)
[2]; cycle 0, AZD7762 monotherapy 21 mg, n=3
  Adverse events grade ≥3, patients: 0 n (%)
[2]; cycle 0, AZD7762 monotherapy 30 mg, n=7
  Adverse events grade ≥3, patients: 0 n (%)
[2]; cycle 0, AZD7762 monotherapy 32 mg, n=6
  Adverse events grade ≥3, patients: 3 (50) n (%)
[2]; cycle 0, AZD7762 monotherapy 32 mg, n=6, n=1 per term unless stated
  Grade ≥3 adverse events, term: Hyponatremia Peripheral neuropathy Troponin I increased
[2]; cycle 0, AZD7762 monotherapy 40 mg, n=8
  Adverse events grade ≥3, patients: 3 (38) n (%)
[2]; cycle 0, AZD7762 monotherapy 40 mg, n=8, n=1 per term unless stated
  Grade ≥3 adverse events, term: Device-related infection Myocardial ischemia Hyperglycemia
[2]; cycle 1 (AZD7762 in combination with gemcitabine), 22/42 patients
  AEs of CTCAE grade ≥3, patients: 52%
[2]; cycle 1, one patient at AZD7762 32 mg with gemcitabine 1,000 mg/m^2
  Non-cardiac dose-limiting toxicity: grade 3 nausea/vomiting for 2 days
[2]; cycle 1, one patient at AZD7762 40 mg with gemcitabine 1,000 mg/m^2
  Non-cardiac dose-limiting toxicity: grade 4 neutropenia complicated by ≥38.5 °C fever for 2 days
[2]; cycle 1 onwards, AZD7762 6 mg plus gemcitabine 750 mg/m^2, 3x/cycle, n=6
  Adverse events grade ≥3, patients: 5 (83) n (%)
[2]; cycle 1 onwards, AZD7762 6 mg plus gemcitabine 1,000 mg/m^2, 2x/cycle, n=2
  Adverse events grade ≥3, patients: 1 (50) n (%)
[2]; [14]
  Adverse events grade ≥3, patients: 1 (100) n (%)
  Grade ≥3 adverse events, term: Neutropenia (n = 2)
[2]; cycle 1 onwards, AZD7762 9 mg plus gemcitabine 1,000 mg/m^2, n=3
  Adverse events grade ≥3, patients: 1 (33) n (%)
[2]; cycle 1 onwards, AZD7762 9 mg plus gemcitabine 1,000 mg/m^2, n=3, n=1 per term
  Grade ≥3 adverse events, term: Thrombocytopenia
[2]; cycle 1 onwards, AZD7762 14 mg plus gemcitabine 1,000 mg/m^2, n=6
  Adverse events grade ≥3, patients: 2 (33) n (%)
[2]; cycle 1 onwards, AZD7762 21 mg plus gemcitabine 1,000 mg/m^2, n=3
  Adverse events grade ≥3, patients: 1 (33) n (%)
[2]; cycle 1 onwards, AZD7762 21 mg plus gemcitabine 1,000 mg/m^2, n=3, n=1 per term
  Grade ≥3 adverse events, term: Atrial thrombosis Febrile neutropenia
[2]; cycle 1 onwards, AZD7762 30 mg plus gemcitabine 1,000 mg/m^2, n=7
  Adverse events grade ≥3, patients: 4 (57) n (%)
[2]; cycle 1 onwards, AZD7762 32 mg plus gemcitabine 1,000 mg/m^2, n=6
  Adverse events grade ≥3, patients: 3 (50) n (%)
[2]; cycle 1 onwards, AZD7762 32 mg plus gemcitabine 1,000 mg/m^2, n=6, n=1 per term
  Grade ≥3 adverse events, term: Neutropenia Flank pain Nausea Vomiting
[2]; cycle 1 onwards, AZD7762 40 mg plus gemcitabine 1,000 mg/m^2, n=8
  Adverse events grade ≥3, patients: 4 (50) n (%)
[2]; cycle 1 onwards, AZD7762 plus gemcitabine, all doses, total n=42
  Adverse events grade ≥3, patients: 22 (52) n (%)
[2]; AZD7762 30 mg group, also judged causally related to gemcitabine
  Serious AE possibly related to AZD7762: grade 3 chest pain
[2]; AZD7762 40 mg group, also recorded as a DLT
  Serious AE possibly related to AZD7762: grade 3 myocardial ischemia
Advanced solid tumors
  Best response stable disease for ≥6–<12 weeks, patients: five
  Disease progression as best response, patients: 20 patients
  Stable disease for ≥12 weeks, patients: four
pChk1ser345 and pH2AX; 32 mg cohort, AZD7762 after gemcitabine
  Change in staining of pChk1ser345 and pH2AX: small increases in staining
pChk1ser345 and pH2AX; hair follicles from skin biopsies, pChk1ser345 and pH2AX
  H-scores for both biomarkers (out of 12): 0–3
pChk1ser345 and pH2AX; other dose cohorts
  Change in staining of pChk1ser345 and pH2AX: no increased staining
